Target: Cys-TrxR (recombinant E. coli thioredoxin reductase) (Escherichia coli, UniProt P0A9P4)
Assay: Trx-dependent reduction assay
Format: biochemical

Sequence of Cys-TrxR (recombinant E. coli thioredoxin reductase) (P0A9P4 2-321): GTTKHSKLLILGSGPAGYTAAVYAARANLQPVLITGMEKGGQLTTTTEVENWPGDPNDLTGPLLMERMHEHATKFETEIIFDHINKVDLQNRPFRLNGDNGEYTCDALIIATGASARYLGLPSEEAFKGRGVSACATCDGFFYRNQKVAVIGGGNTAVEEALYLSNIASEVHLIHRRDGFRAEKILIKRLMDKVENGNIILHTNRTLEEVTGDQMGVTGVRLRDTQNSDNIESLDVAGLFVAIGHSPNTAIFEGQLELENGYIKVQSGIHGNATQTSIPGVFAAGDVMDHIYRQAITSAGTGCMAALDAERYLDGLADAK

Row | Structure (SMILES) | IC50 [µM]
1 | N#CSO [HOSCN] | 9.3
2 | N#C[Se]O [HOSeCN] | 4.3
